Source: paper PMC12692346, “Imidazolinium-Based NHC–Metal Complexes Overcome Both Cancer Multidrug Resistance and Cisplatin Resistance In Vitro” (International Journal of Molecular Sciences, 2025)

What was measured:
[1] = tested on: CST murine breast cancer cell line; experiment: Monoculture PrestoBlue cytotoxicity test, CST; format: cell-based, mouse; settings: 120 h exposure
Procedure: (§1) CST, a drug-naïve murine breast cancer cell line, and cisplatin-resistant cells CST-2/3 were seeded in monoculture into 384-well plates (Corning Inc., Corning, NY, USA) at a density of 2500 cells per well using automated liquid-handling. The cells were preincubated for 24 h to ensure adherence, followed by the addition of serially diluted compounds to a final well volume of 60 µL. Following 120 h of continuous drug exposure, cell viability was quantified using the PrestoBlue viability assay (Thermo Fisher Scientific, Waltham, MA, USA) after 1 h incubation at 555 nm excitation and 585 nm emission wavelengths.
(§2) pIC50 values derived from both co- and monoculture systems were determined by a custom program written in C# [25], then average and standard deviations were calculated and transformed to IC50 values. Every compound was tested in at least 3 independent experiments in triplicates.

[2] = tested on: CST-2/3 cisplatin-resistant cells; experiment: Monoculture PrestoBlue cytotoxicity test, cisplatin-resistant CST-2/3; format: cell-based, mouse; settings: for RR_CST resistance ratio (IC50_CST-2/3 / IC50_CST): CST-2/3 vs CST; for IC50: monoculture, 120 h exposure, PrestoBlue
Procedure: as §1, §2

[3] = tested on: Mes-Sa mCherry uterine sarcoma cell line; experiment: Triple coculture fluorescence cytotoxicity test, parental line; format: cell-based, human; settings: 144 h incubation, fluorescence readout
Procedure: (§3) All synthesized complexes and representatives of the respective ligands (Lb, Lc, SIPr, IPr) were tested in a triple coculture of uterine sarcoma cell lines, consisting of the parental Mes-Sa cell line, and its MDR derivatives Mes-Sa/B1 and Mes-Sa/Dx5, transfected or selected in doxorubicin to overexpress P-glycoprotein, respectively (Figure 2a–c, Table S2). Each cell line expresses a distinct fluorescent protein (mCherry, mOrange, and eGFP, respectively), and the total fluorescence of a well is proportional to the cell number, allowing the assessment of compound cytotoxicity.
(§4) In a triple coculture system, cell lines expressing different fluorescent proteins were seeded in the same well. Cell lines (Mes-Sa mCherry, Mes-Sa/B1 mOrange, Mes-Sa/Dx5 eGFP [25]) were admixed and seeded on 384-well plates at a density of 3 × 800 cells/well (1:1:1 ratio), resulting in an overall total of 2400 cells. The next day, serially diluted compounds were added to the wells. Liquid handling was managed by a Hamilton StarLet pipetting robot. After 144 h of incubation, the fluorescence of mCherry (ex/em: 585/610 nm), mOrange (ex/em: 545/567 nm) and eGFP (ex/em: 485/510 nm) was recorded with an EnSpire plate reader (PerkinElmer, Waltham, MA, USA).
as §2

[4] = tested on: Mes-Sa/Dx5 eGFP; experiment: Triple coculture fluorescence cytotoxicity test, doxorubicin-selected MDR line; format: cell-based, human; settings: for RR_Dx5 resistance ratio (IC50_MDR line / IC50_parental line) of Mes-Sa/Dx5: Mes-Sa/Dx5 vs Mes-Sa; for IC50: triple coculture, 144 h incubation, fluorescence readout
Procedure: as §3, §4, §2

[5] = tested on: Mes-Sa/B1 mOrange; experiment: Triple coculture fluorescence cytotoxicity test, ABCB1-transfected MDR line; format: cell-based, human; settings: for RR_B1 resistance ratio (IC50_MDR line / IC50_parental line) of Mes-Sa/B1: Mes-Sa/B1 vs Mes-Sa; for IC50: triple coculture, 144 h incubation, fluorescence readout
Procedure: as §3, §4, §2

Row | SMILES | IC50 [3] | RR_Dx5 resistance ratio (IC50_MDR line / IC50_parental line) of Mes-Sa/Dx5 [4] | IC50 [4] | RR_B1 resistance ratio (IC50_MDR line / IC50_parental line) of Mes-Sa/B1 [5] | IC50 [5] | further results
1 | N.N.O=C([O-])C1(C(=O)[O-])CCC1.[Pt+2] [Carboplatin, reference compound] |  |  |  |  |  | IC50 [1]: 0.89 µM; RR_CST resistance ratio (IC50_CST-2/3 / IC50_CST) [2]: 7.0; IC50 [2]: 6.24 µM
2 | CC(C)c1cccc(C(C)C)c1N1[CH]([Cu][Cl])N(Cc2ccccc2)C[C@@H]1C(C)(C)C (stereo partly shown) [Compound 1a] | 0.52 µM | 1.3 | 0.69 µM | 4.7 | 2.45 µM | 
3 | CC(C)c1cccc(C(C)C)c1N1[CH]([Cu][Cl])N([C@@H](C)c2ccccc2)C[C@@H]1C(C)(C)C (stereo partly shown) [Compound 1b] | 1.74 µM | 1.3 | 2.32 µM | 4.9 | 8.51 µM | IC50 [1]: 2.81 µM; IC50 ([3]; listed as 1b*): 0.75 µM; RR_Dx5 resistance ratio (IC50_MDR line / IC50_parental line) of Mes-Sa/Dx5 ([4]; listed as 1b*): 1.9; IC50 ([4]; listed as 1b*): 1.46 µM; RR_B1 resistance ratio (IC50_MDR line / IC50_parental line) of Mes-Sa/B1 ([5]; listed as 1b*): 7.0; IC50 ([5]; listed as 1b*): 5.25 µM; RR_CST resistance ratio (IC50_CST-2/3 / IC50_CST) [2]: 1.8; IC50 [2]: 4.92 µM
4 | CC(C)c1cccc(C(C)C)c1N1[CH]([Cu][Cl])N([C@H](C)c2ccccc2)C[C@@H]1C(C)(C)C (stereo partly shown) [Compound 1c] | 0.8 µM | 1.5 | 1.18 µM | 6.9 | 5.5 µM | IC50 ([3]; listed as 1c*): 0.74 µM; RR_Dx5 resistance ratio (IC50_MDR line / IC50_parental line) of Mes-Sa/Dx5 ([4]; listed as 1c*): 2.9; IC50 ([4]; listed as 1c*): 2.18 µM; RR_B1 resistance ratio (IC50_MDR line / IC50_parental line) of Mes-Sa/B1 ([5]; listed as 1c*): 5.4; IC50 ([5]; listed as 1c*): 3.97 µM
5 | CC(C)c1cccc(C(C)C)c1N1[C](=[Cu][Cl])N([C@@H](C)c2cccc3ccccc23)C[C@@H]1C(C)(C)C [Compound 1d] | 0.51 µM | 3.4 | 1.74 µM | 9.8 | 4.94 µM | IC50 [1]: 1.38 µM; RR_CST resistance ratio (IC50_CST-2/3 / IC50_CST) [2]: 1.3; IC50 [2]: 1.82 µM
6 | CC(C)c1cccc(C(C)C)c1N1[CH]([Cu][Cl])N([C@@H](C)C(C)(C)C)C[C@@H]1C(C)(C)C (stereo partly shown) [Compound 1f] | 3.04 µM | 1.4 | 4.19 µM | 2.7 | 8.13 µM | 
7 | CC(C)c1cccc(C(C)C)c1N1[C](=[Ag][Cl])N([C@@H](C)c2ccccc2)C[C@@H]1C(C)(C)C [Compound 2b] | 0.75 µM | 7.3 | 5.5 µM | 19.1 | 14.3 µM | IC50 [1]: 1.01 µM; RR_CST resistance ratio (IC50_CST-2/3 / IC50_CST) [2]: 2.2; IC50 [2]: 2.17 µM
8 | CC(C)c1cccc(C(C)C)c1N1[C](=[Ag][Cl])N([C@H](C)c2ccccc2)C[C@@H]1C(C)(C)C [Compound 2c] | 1.69 µM | 4.2 | 7.14 µM | 8.5 | 14.4 µM | 
9 | CC(C)c1cccc(C(C)C)c1N1[C](=[Ag][Cl])N([C@@H](C)c2cccc3ccccc23)C[C@@H]1C(C)(C)C [Compound 2d] | 0.54 µM | 6.2 | 3.37 µM | 9.6 | 5.2 µM | 
10 | CC(C)c1cccc(C(C)C)c1N1[C](=[Ag][Cl])N([C@H](C)c2ccc3ccccc3c2)C[C@@H]1C(C)(C)C [Compound 2e] | 0.93 µM | 5.6 | 5.25 µM | 7.9 | 7.37 µM | IC50 [1]: 1.28 µM; RR_CST resistance ratio (IC50_CST-2/3 / IC50_CST) [2]: 1.5; IC50 [2]: 1.98 µM
11 | CC(C)c1cccc(C(C)C)c1N1[C](=[Ag][Cl])N([C@@H](C)C(C)(C)C)C[C@@H]1C(C)(C)C [Compound 2f] | 0.74 µM | 1.8 | 1.37 µM | 5.1 | 3.77 µM | 
12 | CC(C)c1cccc(C(C)C)c1N1[C](=[Au][Cl])N([C@H](C)c2ccccc2)C[C@@H]1C(C)(C)C [Compound 3c] | 18.6 µM | 2.1 | 39.6 µM | 2.1 | 39.8 µM | 
13 | CC(C)c1cccc(C(C)C)c1N1[C](=[Au][Cl])N([C@H](C)c2ccc3ccccc3c2)C[C@@H]1C(C)(C)C [Compound 3e] | 7.47 µM | 2.3 | 16.9 µM | 2.6 | 19.1 µM | 
14 | CC(C)c1cccc(C(C)C)c1N1[C](=[Au][Cl])N([C@@H](C)C(C)(C)C)C[C@@H]1C(C)(C)C [Compound 3f] | 11.4 µM | 1.2 | 13.8 µM | 1.6 | 18.6 µM | 
15 | C=C[CH2][Pd]([Cl])=[C]1N([C@@H](C)c2ccccc2)C[C@H](C(C)(C)C)N1c1c(C(C)C)cccc1C(C)C [Compound 4b] | 5.19 µM | 2.4 | 12.2 µM | 1.8 | 9.33 µM | 
16 | CC(C)c1cccc(C(C)C)c1-n1ccn(-c2c(C(C)C)cccc2C(C)C)[c]1=[Cu][Cl] [Compound 5b] | 1.01 µM | 1.8 | 1.83 µM | 2.0 | 2 µM | 
17 | CC(C)c1cccc(C(C)C)c1-n1ccn(-c2c(C(C)C)cccc2C(C)C)[c]1=[Ag][Cl] [Compound 6b] | 1.82 µM | 2.1 | 3.89 µM | 2.4 | 4.37 µM | 
18 | CC(C)c1cccc(C(C)C)c1-n1ccn(-c2c(C(C)C)cccc2C(C)C)[c]1=[Au][Cl] [Compound 7b] | 18.6 µM | 3.2 | 60.3 µM | 1.9 | 36.3 µM | 
19 | CC(C)c1cccc(C(C)C)c1-n1ccn(-c2c(C(C)C)cccc2C(C)C)[c]1=[Cu+]=[c]1n(-c2c(C(C)C)cccc2C(C)C)ccn1-c1c(C(C)C)cccc1C(C)C.F[B-](F)(F)F [Compound 9b] | 0.058 µM | 37.3 | 2.15 µM | 38.0 | 2.19 µM | 
20 | COc1cc([C@@H]2c3cc4c(cc3[C@@H](O[C@@H]3O[C@@H]5CO[C@@H](C)O[C@H]5[C@H](O)[C@H]3O)[C@H]3COC(=O)[C@H]23)OCO4)cc(OC)c1O [Etoposide, reference compound] |  | 15.4 |  | 9.0 |  | IC50 ([3]; Homo sapiens, MES-SA): 0.12 µM; IC50 ([4]; Homo sapiens, MES-SA/Dx5): 1.9 µM; IC50 ([5]; Homo sapiens, MES-SA): 1.11 µM
21 | CC(C)c1cccc(C(C)C)c1-n1cc[n+](-c2c(C(C)C)cccc2C(C)C)c1 [IPr, reference compound] |  | 23.4 |  | 15.5 |  | IC50 ([3]; Homo sapiens, MES-SA): 2.19 µM; IC50 ([4]; Homo sapiens, MES-SA/Dx5): 51.3 µM; IC50 ([5]; Homo sapiens, MES-SA): 33.9 µM
22 | CC(C)c1cccc(C(C)C)c1N1C=[N+]([C@H](C)c2ccccc2)C[C@@H]1C(C)(C)C [Lc] |  | 30.4 |  | 21.4 |  | IC50 ([3]; Homo sapiens, MES-SA): 2.4 µM; IC50 ([4]; Homo sapiens, MES-SA/Dx5): 73 µM; IC50 ([5]; Homo sapiens, MES-SA): 51.3 µM
23 | O=C1[O][Pt]2([NH][C@@H]3CCCC[C@H]3[NH]2)[O]C1=O [Oxaliplatin, reference compound] |  |  |  |  |  | IC50 [1]: 0.41 µM; RR_CST resistance ratio (IC50_CST-2/3 / IC50_CST) [2]: 9.3; IC50 [2]: 3.84 µM
